“Also recorded” adds a separate entry of the source. Where two headings read alike, the source gives them in different places.
Legend:
PC-3 cells = assay: MTT cytotoxicity assay, PC-3 cells transfected with α-enolase siRNA; assay type: cell-based; settings: for EC50: Homo sapiens
MCF-7 cells [1] = assay: Clonogenic assay, MCF-7 cells; assay type: cell-based, human; settings: MCF-7 cells
Method: Utilizing a clonogenic assay generated additional information concerning cell viability after drug-resistant cells were exposed to siRNA and chemotherapeutics. […] Taxol or Vincristine was added at IC10 or IC50 concentrations determined from MTT experiments for MCF-7 cells. […] The cells were further incubated for an additional 7 days. At the end of the incubation, the cells were stained with addition of a 0.5% Methylene Blue solution in 50% ethanol for 15 min. at RT. The staining solution was then removed and plates were dried overnight. The plates were scanned and the stained colonies were solubilized in 0.1% SDS. The absorbance of the resulting solution was determined by spectrophotometry at 660 nm.

SW-480 cells = assay: cells; assay type: cell-based, human; settings: SW-480 cells; for EC50: Homo sapiens, SW480
Method: The colorectal adenocarcinoma cell line SW-480 was treated with α-enolase-directed siRNA using the procedures described above.

A549 cells [2] = assay: MTT cytotoxicity assay, A549 cells transfected with α-enolase siRNA; settings: for chemosensitivity of α-enolase-silenced cells (words): A549 cells; for EC50: Homo sapiens
Method: Small interfering RNA transfected cells were seeded in triplicate into 96-well plates at 5×10^3 cells/well 48 hrs post-transfection. The cells were incubated for an additional 16-24 hrs before they were exposed to increasing concentrations of cytotoxic drugs. […] Appropriate dilutions were made in the respective media for each cell line. Following addition of drugs, incubation was continued for an additional 72 hrs. Twenty-five ml of MTT dye (5 mg/ml) were added into each well and the plate was further incubated at 37° C. for 4 hrs. The dye was solubilized with 10% Triton X-100, 0.01 N HCl and further incubated at 37° C. in the dark for 30 min. Cell viability was determined by measure of absorption at 570 nm in a Wallac multiwell plate reader (PerkinElmer, Inc., Boston, Mass.). The averages of triplicate wells were plotted using the Prism software (GraphPad Software, Inc., San Diego, Calif.).
To investigate if α-enolase is broadly involved in mediating drug resistance to microtubule targeting agents, non-small cell lung cancer cell lines A549 and H460, respectively, were transfected with α-enolase siRNA and enolase expression and viability were assessed.

H460 cells = assay: MTT cytotoxicity assay, H460 cells transfected with α-enolase siRNA; assay type: cell-based, human; settings: for EC50: Homo sapiens
Method: To establish the effectiveness of α-enolase silencing on other cancer cell types, H460 non-small cell lung cancer cells were challenged with a chemotherapeutic drug, MTT cytotoxicity assays were carried out and survival curves plotted as shown in FIG. 17.

MCF-7 cells [3] = assay: MTT cytotoxicity assay, MCF-7 cells transfected with α-enolase siRNA; assay type: cell-based, human; settings: MCF-7 cells; for EC50 / IC50: Homo sapiens, MCF7; for IC50 / IC10: from MTT experiments; for EC50 lower in α-enolase-depleted cells vs control siRNA treated cells: on average
Method: For a typical siRNA transfection, 1 nmole of the annealed siRNA duplex was mixed with 1.4 ml of Opti-MEM reagent (Invitrogen). In another tube, […] of Oligofectamine reagent (Invitrogen, Carlsbad, Calif.) is mixed with […] of Opti-MEM. The two solutions are combined and mixed gently by inversion and incubated for 20 min. at RT. The resulting solution is added to the cultured cells drop by drop in a 10 cm dish (cells are approximately 40-50% confluent). The next day the transfected cells were trypsinized and seeded in 6 or 96-well plates and further incubated for the indicated amount of time (assay dependent) before further analysis.
To evaluate the effect of α-enolase depletion on the chemosensitivity of cells to cytotoxic agents, MTT assays were performed in breast adenocarcinoma MCF-7 cells transfected with α-enolase specific siRNAs. […] The predicted EC50 values (the effective dose of a compound responsible for a positive effect half-way between baseline and maximum net impact) for the α-enolase-depleted cells are shown in Table 3. Similarly, results using other chemotherapeutic drugs are also shown in the table indicating the sensitivity of breast cancer tissue to α-enolase depletion.

SKOV3 cells = assay: Cytotoxicity in α-enolase siRNA transfected SKOV3 cells; settings: data not shown
A549 cells [4] = assay: Clonogenic assay, A549 cells; assay type: cell-based, human; settings: A549 cells vs control vectors
CaOV3 cells = assay: MTT cytotoxicity assay, CaOV3 cells transfected with α-enolase RNAi; assay type: cell-based, human; settings: for EC50: Homo sapiens, 72 hours post transfection
Excerpt: These observations were expanded by targeting α-enolase in the ovarian cancer cell line, CaOV3.

MDA-435 cells = assay: cells; assay type: cell-based, human; settings: MDA-435 cells; for EC50: Homo sapiens, MDA435
Method: Similar tests utilizing α-enolase siRNA were performed on MDA-435 breast adenocarcinoma cells. Chemosensitivity to various drugs was determined for the MDA-435 cells as described above.

α-enolase = assay: Western blot of α-enolase protein expression after siRNA transfection; assay type: cell-based, human; settings: MCF-7 cells
Method: Western blot analysis utilizing anti-α-enolase antibodies was performed on MOLT4 cell extracts fractionated on SDS-PAGE (FIG. 3). Cells extract were prepared according to the protocol detailed in Example 1. […] Resolved proteins were electrophoretically transferred onto nitrocellulose membranes (Hybond, Amercham Pharmacia Biotech) for 1 hour. […] After blocking the membranes with 5% non-fat milk in 1×PBS overnight at 4° C., all antibody-binding reactions were performed in 5% non-fat milk in 1×PBS for 2 hours at room temperature for primary antibodies and for 1 hour for secondary antibodies coupled to HRP. The signal was detected by the Supersignal west Pico chemiluminescent substrate (Pierce, Rockford, Ill., USA). Two polyclonal antibodies against α-enolase were used: a goat antibody against human α-enolase (Santa Cruz Biotechology, Inc., Santa Cruz, Calif.); rabbit polyclonal antibody against human α-enolase (NNE) (MorphoSys AG, Munich, Del.). Membranes were subsequently blotted with anti-GAPDH (Novus Biologicals, Inc., Littleton, Colo.) or anti-prohibitin mouse monoclonal antibody (Lab Vision Corp., Fremont, Calif.) as controls for protein loading. To establish the importance of α-enolase to the expression of the drug-resistant phenotype in cell lines, α-enolase expression was silenced using RNAi. Briefly, the following siRNA duplexes targeting the human α-enolase mRNA were designed and purchased either from Ambion (Austin, Tex.) or Invitrogen (Carlsbad, Calif.). […] [NT] ID NO: 2) targeting the mRNA sequence corresponding to nucleotides […] from the start of the transcript (Ref Seq ID number: NM-001428). […] In another tube, […] of Oligofectamine reagent (Invitrogen, Carlsbad, Calif.) is mixed with […] of Opti-MEM. The two solutions are combined and mixed gently by inversion and incubated for 20 min. at RT. […] The next day the transfected cells were trypsinized and seeded in 6 or 96-well plates and further incubated for the indicated amount of time (assay dependent) before further analysis.

[5] = control, read-out: Control (EC50)
[6] = α-enolase specific siRNA, read-out: α-Enolase (EC50)
[7] = A549, read-out: α-Enolase (EC50)
[8] = NCI-H460, control, read-out: Control (EC50)
[9] = NCI-H460, α-enolase specific siRNA, read-out: α-Enolase (EC50)
[10] = control siRNA, 72 hrs drug, read-out: Control (EC50)
[11] = Caov-3, control, read-out: Control (EC50)
[12] = Caov-3, α-enolase specific RNAi, read-out: α-Enolase (EC50)
[13] = Eno-1 siRNA, read-out: Eno-1 (EC50)
[14] = Eno-1 stealth siRNA, read-out: Eno-1 ST (EC50)
[15] = control siRNA, read-out: Control (EC50)
[16] = mock transfection, read-out: Mock (EC50)

Row | EC50 (SW-480 cells; [5]) [nM] | EC50 (SW-480 cells; [6]) [nM] | Compound | EC50 (PC-3 cells; [5]) [nM] | EC50 (PC-3 cells; [6]) [nM] | EC50 (A549 cells [2]; A549, read-out: Control (EC50)) [nM] | EC50 (A549 cells [2]; [7]) [nM] | viability of α-enolase-silenced cells under drug treatment vs control cells (H460 cells) | EC50 (H460 cells; [8]) [nM] | EC50 (H460 cells; [9]) [nM] | EC50 (MCF-7 cells [3]; [10]) [nM] | IC50 (MCF-7 cells [3]) [nM] | EC50 (MCF-7 cells [3]; [6]) [nM] | sensitivity of α-enolase silenced cells (MCF-7 cells [3]) | IC10 (MCF-7 cells [3]) [nM] | EC50 lower in α-enolase-depleted cells vs control siRNA treated cells (MCF-7 cells [3]) [fold] | cytotoxic effect in α-enolase-depleted cells (SKOV3 cells) | sensitivity of α-enolase siRNA cells in clonogenic assay (A549 cells [4]) | decrease of chemotherapeutic drug resistance by α-enolase-directed siRNA vs mock siRNA (CaOV3 cells) [fold] | EC50 (CaOV3 cells; [11]) [nM] | EC50 (CaOV3 cells; [12]) [nM] | other results
1 | 0.276 | 0.033 | CC(=O)O[C@H]1C(=O)[C@@]2(C)[C@H]([C@H](OC(=O)c3ccccc3)[C@]3(O)C[C@H](OC(=O)[C@H](O)[C@@H](NC(=O)c4ccccc4)c4ccccc4)C(C)=C1C3(C)C)[C@]1(OC(C)=O)CO[C@@H]1C[C@@H]2O [Taxol] | 0.199 | 0.0206 | 5.94 | 3.16 | greatest decreases in viability | 2.24 | 0.602 | 78.4 | 100 | 7.16 | substantial increase in their sensitivity | 1 | 10 | enhanced cytotoxic effect | more sensitive | 24.6 | 2.69 | 0.11 | enhancement in sensitivity with α-enolase silencing (PC-3 cells): 10 fold; cytotoxicity in α-enolase depleted cells in clonogenic assay (MCF-7 cells [1]): enhanced taxol cytotoxicity; chemosensitivity of α-enolase-silenced cells (words) (A549 cells [2]): enhanced chemosensitivity; also recorded: significant shifts in their chemosensitivities; EC50 (MDA-435 cells; [13]): 0.334 nM; EC50 (MDA-435 cells; [14]): 0.149 nM; EC50 (MDA-435 cells; [15]): 1.1 nM; EC50 (MDA-435 cells; [16]): 0.445 nM; sensitivity of α-enolase-silenced cells (MDA-435 cells): Increases in sensitivity
2 | 45.8 | 0.221 | CC[C@]1(O)C[C@H]2CN(CCc3c([nH]c4ccccc34)[C@@](C(=O)OC)(c3cc4c(cc3OC)N(C=O)[C@H]3[C@@](O)(C(=O)OC)[C@H](OC(C)=O)[C@]5(CC)C=CCN6CC[C@]43[C@@H]65)C2)C1 [Vincristine] | 3400 | 1690 | 83.3 | 20 | decreased the viability | 4.96 | 2.03 | 163000 | 0.25 | 12600 | substantial increase in their sensitivity | 0.005 | 12 | enhanced cytotoxic effect | more sensitive | 6 | 0.084 | 0.0108 | more sensitive, enolase-depleted vs mock transfected cells (SW-480 cells): approximately 210 times; chemosensitivity of α-enolase-depleted cells (words) (SW-480 cells; listed as vincristin): greater chemosensitivity; chemosensitivity of α-enolase-depleted cells (words) (SW-480 cells; listed as vincristine): greatly enhanced chemosensitivity; chemosensitivity of α-enolase-silenced cells (words) (A549 cells [2]; listed as vincristin): significant shifts in their chemosensitivities; chemosensitivity of α-enolase-silenced cells (words) (A549 cells [2]; listed as vincristine): enhanced chemosensitivity; EC50 (MDA-435 cells; [13]): 0.375 nM; EC50 (MDA-435 cells; [14]): 0.324 nM; EC50 (MDA-435 cells; [15]): 0.246 nM; EC50 (MDA-435 cells; [16]): 0.667 nM
3 | – | – | VEGF-directed siRNA: chemically modified Stealth siRNA duplex targeting VEGF, SEQ ID NO: 8 and 9 (chain 1 ACAAAUGUGAAUGCAGACCAAAGAA; chain 2 UUCUUUGGUCUGCAUUCACAUUUGU; chemically modified Stealth duplex, pattern not given here) | – | – | – | – | – | – | – | – | – | – | – | – | – | – | – | – | – | – | decrease of α-enolase expression (α-enolase): ~100%
